Data set [1] is described as follows: inhibitors of intracellular T. cruzi replication, confirmation, NIH3T3 host cells, beta-gal luminescence (AID 2044).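 Note: intracellular parasites grown in NIH/3T3 mouse fibroblasts as host cells; luminescent beta-galactosidase reporter signal from transgenic T. cruzi replicating inside host cells; inhibitors lower the luminescence signal.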 Format: functional, cell-based.
Data set [2] can be described thus: cytotoxicity toward NIH3T3 fibroblasts, dose response, counter-screen, cell-based, ATP luminescence, mouse fibroblasts (AID 2010).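 Note: cells exposed to compound for about 90 hours before reading.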 Format: functional. Background: A counterscreen serves to expose hits that act by an unwanted route or on another target.
Data set [3] has as its target T1, Heat shock factor protein 1 (Mus musculus, UniProt P38532).
T1 sequence (P38532 whole entry): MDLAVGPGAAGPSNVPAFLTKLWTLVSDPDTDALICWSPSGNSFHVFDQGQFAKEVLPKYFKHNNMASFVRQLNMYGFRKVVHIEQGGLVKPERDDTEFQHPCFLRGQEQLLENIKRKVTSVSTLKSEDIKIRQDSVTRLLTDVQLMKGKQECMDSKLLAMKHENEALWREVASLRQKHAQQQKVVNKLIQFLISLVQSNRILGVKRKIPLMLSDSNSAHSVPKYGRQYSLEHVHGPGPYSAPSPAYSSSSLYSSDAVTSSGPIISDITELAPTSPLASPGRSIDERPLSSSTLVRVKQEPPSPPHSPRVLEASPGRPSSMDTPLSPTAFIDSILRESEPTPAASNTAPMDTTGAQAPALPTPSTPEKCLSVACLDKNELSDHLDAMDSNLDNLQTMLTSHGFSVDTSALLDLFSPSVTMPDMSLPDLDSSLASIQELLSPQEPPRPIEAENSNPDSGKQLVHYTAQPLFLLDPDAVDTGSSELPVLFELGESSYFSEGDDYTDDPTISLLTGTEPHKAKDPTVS
The data set is described as follows: inhibition of MG132-induced HSE-luciferase signal, confirmation, cell-based, NIH3T3, luminescence, dose retest (AID 2382).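 Note: NIH3T3 fibroblasts with HSF1-driven luciferase reporter stressed by proteasome inhibitor MG132; luminescence from HSF1-driven luciferase expression after 8 hours of MG132 stress.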 It counts as functional.

The target of another data set is Cytochrome P450 2C19 (Homo sapiens, UniProt P33261). Kind of data set: Cytochrome panel assay with activity outcomes. Panel member name: p450-cyp2c19 Compounds with AC50 equal or less than 10 uM are considered active. It counts as functional.
Chain of Cytochrome P450 2C19 (P33261 whole entry): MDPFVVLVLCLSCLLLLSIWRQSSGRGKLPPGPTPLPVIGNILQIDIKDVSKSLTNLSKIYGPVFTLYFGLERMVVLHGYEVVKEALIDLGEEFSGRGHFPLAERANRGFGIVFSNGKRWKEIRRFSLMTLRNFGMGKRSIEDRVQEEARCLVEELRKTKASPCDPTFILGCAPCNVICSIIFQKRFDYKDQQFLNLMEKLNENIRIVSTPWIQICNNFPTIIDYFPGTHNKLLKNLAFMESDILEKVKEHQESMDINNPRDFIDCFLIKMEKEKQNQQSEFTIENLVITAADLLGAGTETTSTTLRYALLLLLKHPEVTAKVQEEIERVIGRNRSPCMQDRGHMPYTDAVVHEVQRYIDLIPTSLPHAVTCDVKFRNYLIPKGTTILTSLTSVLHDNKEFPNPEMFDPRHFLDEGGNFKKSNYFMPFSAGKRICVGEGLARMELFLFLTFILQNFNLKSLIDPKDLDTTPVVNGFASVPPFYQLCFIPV
The test system of a further data set is Streptococcus. The data set is described as follows: Group A Streptococcus viability loss, dose response, counter-screen for streptokinase expression inhibitor project, luminescence, BacTiterGlo (AID 1915).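 Note: potency for reduction of bacterial viability or growth.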 Format: functional, organism-based.
The test system of data set [4] is Streptococcus sp. 'group A'. Kind of data set: growth inhibition of control SK(-) GAS strain, dose response, counter-screen for streptokinase expression inhibitor project, luminescence, kanamycin, BacTiterGlo, confirmation (AID 1900). It counts as functional, organism-based.
Data set [5] has as its target FAD-linked sulfhydryl oxidase ALR (Homo sapiens, UniProt P55789). Kind of data set: inhibitors of human ALR sulfhydryl oxidase, dose response, biochemical, H2O2 detection, luminescence, cherry-pick (AID 493248).
For another data set, the system named is INS1. The data set is described as follows: beta cell apoptosis inhibitors, cytokine rescue, dose response, luminescence, retest (AID 449756).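 Note: cell death triggered by IL-1 beta plus TNF-alpha plus IFN-gamma mixture; protective hits raise ATP signal compared with cytokine alone wells.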 The note with it: Rattus norvegicus. It counts as functional, cell-based.
The nature of data set [6]: Luminescence Cell-Based Dose Response HTS to Identify Inhibitors of 5'UTR Stem-Loop Driven Prion Protein mRNA Translation in H4 Neuroglioblastoma Cells. [Related pubchem assays: 1827 (Project Summary), 1813 (Primary HTS)]. It counts as functional.
Data set [7] can be described thus: inhibitors of firefly luciferase expression or activity, dose response, H4 neuroglioma cells, luminescence (AID 1990). It counts as functional, cell-based.
A short description of data set [8]: inhibitors of SNCA 5'UTR-driven reporter translation, confirmation, H4 neuroglioma cells, luminescence (AID 1988). It counts as functional, cell-based.

Molecules are shown by their SMILES. Active and inactive are the calls of the source.

In general, EC50 refers to the concentration giving half of the maximal effect. The term AC50 denotes the midpoint of the concentration-response curve, whichever way the signal moves.

Chain of FAD-linked sulfhydryl oxidase ALR (P55789 whole entry): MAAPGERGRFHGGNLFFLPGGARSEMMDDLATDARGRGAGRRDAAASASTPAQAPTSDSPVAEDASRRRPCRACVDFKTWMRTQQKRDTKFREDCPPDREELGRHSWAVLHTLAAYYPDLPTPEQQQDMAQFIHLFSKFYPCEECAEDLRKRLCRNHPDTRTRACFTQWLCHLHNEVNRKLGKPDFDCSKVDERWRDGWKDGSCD

Take `O=C(CSc1oc(-c2cccs2)nc1S(=O)(=O)c1ccccc1)NC1CCCCC1`: the half-maximal effective concentration (EC50) in [1] is 1.13 µM (active); in data set [2], > 60 µM (inconclusive).
With `CCOC(=O)N1CCN(c2nc(C)c3c(n2)CCCC3=O)CC1`, the 50% effective concentration (EC50) in data set [3] is listed as > 195 µM (not active).
On the same count and under the same terms, the same measure for `COc1ccc(CNC(=O)c2ccc(CS(=O)(=O)c3ccc(Br)cc3)o2)cc1`: > 195 µM (not active).
For the compound `c1ccc(-n2ncc3c(NCCCN4CCOCC4)ncnc32)cc1`, the AC50 at Cytochrome P450 2C19 (read-out: AC50) is 15.8 µM (inconclusive).
Take `CCC1=NN2C(=N)/C(=C\c3cccn3-c3ccc(C)c(C)c3)C(=O)N=C2S1`: the concentration giving a half-maximal response (EC50) was 6.01 µM (active) with Streptococcus and 3.34 µM (active) in [4].
Regarding `COc1cc(/C=C2/C(=O)ON=C2C)cc(Cl)c1O`, the AC50 in data set [5] was 16 µM (active).
`CS(=O)(=O)Nc1nc2ccccc2[nH]1`: the EC50 in [3] is reported as > 195 µM (not active).
With `CC1=NN(c2ccccc2)C(=O)C1/C=C1/C(=O)NC(=O)N(c2cc(C)cc(C)c2)C1=O` (centres undefined), in [5], the AC50 was 1.76 µM (active).
For the compound `COc1ccc(CNC(=O)OCCN2CCN(S(=O)(=O)c3ccc(C)cc3)CCC2=O)cc1`, the EC50 in data set [3] is given as > 195 µM (not active).
For the compound `COc1ccc(CCN(C)CCC(=O)Nc2ccc(C)cc2)cc1OC`, the EC50 in data set [1] is 0.227 µM (active); in data set [2], > 60 µM (not active).
Take `CCc1ccc(C(=O)NNc2cc(Cl)ccc2Cl)cc1`: the AC50 in the data set with INS1 is 6.64 µM (active).
Take `COc1ccccc1N1CCN(C(S)=Nc2ccc(F)cc2)CC1`: in data set [3], the EC50 was 54.6 µM (active).
As to `CCN(CC)S(=O)(=O)c1cc(C)ccc1N=C(S)Nc1cccnc1`, the AC50 in the data set with INS1 is 43.2 µM (active).
As for `CCN(CC)c1ccc(NC(=O)C2CC3CCC2C3)cc1` (centres undefined), in data set [5], the AC50 is 0.431 µM (active).
Turning to `CCN(CCCNS(=O)(=O)c1ccc2c(c1)CCN2C(C)=O)c1cccc(C)c1`, the AC50 in data set [5] was 2.81 µM (active).
Regarding `Cc1ccc(S(=O)(=O)CCC(=O)Nc2ccc(Br)cc2)cc1`, the EC50 in data set [3] was > 195 µM (not active).
As for `O=C(NCC(c1ccco1)N1CCc2ccccc21)c1ccccc1F` (centres undefined), in data set [5], the AC50 was 1.67 µM (active).
As for `Cc1ccc(NC(S)=NC2CC3CCC(C2)N3Cc2ccco2)cc1C` (centres undefined), the EC50 in [3] is > 195 µM (not active).
On to `O=C(CCn1c(=S)oc2ccccc21)NC1CCCCCC1`, for which the EC50 in [3] is given as > 195 µM (not active).
On the same count and under the same terms, to `O=C(NCc1ccc(C(=O)O)cc1)OCc1ccccc1` belongs > 195 µM (not active); to `COc1ccc(Nc2ncnc3sc(-c4ccccc4)cc23)cc1`, > 195 µM (not active).
As for `Cc1ccc(C(=O)N(Cc2cccnc2)Cc2cc3cc(C)ccc3n3nnnc23)cc1`, the figures for the EC50 in [1] and in data set [2] were 1.29 µM (active) and > 60 µM (not active), respectively.
`Brc1ccc2c(c1)[C@H]1OCC[C@H]1[C@@H](c1cccs1)N2`: the EC50 is 17.2 µM (active) in data set [6], > 60 µM (not active) in data set [7] and 13.2 µM (active) in [8].
As to `COc1ccccc1NS(=O)(=O)c1cccc(NC(=O)c2[nH]c(C)c(C(C)=O)c2C)c1`, the AC50 in the data set on INS1 was 31.1 µM (active).
`Cc1cccc(C(=O)NC(=S)N2CCN(c3ccc([N+](=O)[O-])cc3)CC2)c1`: in data set [3], the EC50 was > 195 µM (not active).
For the compound `CC(=O)Nc1ccc2c(c1)OCCO2`, the concentration at half-maximal activity (AC50) on Cytochrome P450 2C19 (read-out: AC50) was 17.8 µM (inconclusive).
With `CCOC(=O)c1cc(-c2ccccc2)sc1NC(=O)CN1C(=O)NC(CC)(c2ccccc2)C1=O` (centres undefined), the EC50 in data set [1] is 2.17 µM (active); in [2], > 60 µM (inconclusive).
The like results for `COc1ccc(/C=C2\SC(=S)N(CCCC(=O)N3CCN(C)CC3)C2=O)cc1` were, in that order, 1.06 µM (active) and 8.7 µM (active).
Turning to `Cc1ccc(S(=O)(=O)CC(=O)Nc2ccc(S(=O)(=O)Nc3onc(C)c3C)cc2)cc1`, in [3], the EC50 is given as > 195 µM (not active).
In the case of `COc1ccccc1C(=O)NCCn1cc(SCC(=O)Nc2cc(C)on2)c2ccccc21`, the EC50 in [6] was > 120 µM (not active); in [7], 16.2 µM (active); in [8], > 120 µM (not active).
With `C=CCn1c(S)nnc1-c1cccn(Cc2ccccc2)c1=O`, the EC50 in data set [6] was 27.4 µM (active); in data set [7], > 120 µM (not active); in [8] it was > 120 µM (not active). Also, the AC50 at Cytochrome P450 2C19 (read-out: AC50) was 25.1 µM (inconclusive).
Consider `CN1C2CCC1CC(OC(=O)c1ccc(Cl)cc1)C2` (centres undefined), for which, at Cytochrome P450 2C19 (read-out: AC50), the AC50 is 5.62 µM (inconclusive).
For `O=C(NCc1ccco1)c1ccccc1NS(=O)(=O)c1ccc(Cl)s1`, the AC50 in data set [5] was 2.1 µM (active).
In the case of `O=C(Cn1cc(C(=O)c2ccco2)c2ccccc21)NC1CCCCC1`, in data set [3], the 50% effective concentration (EC50) is > 195 µM (not active).
As for `Nc1ccc(Cl)c(S(=O)(=O)Nc2ccc(Cl)cc2)c1`, the EC50 in [1] is 39.7 µM (active); in data set [2], > 60 µM (not active).
With `Cc1ccc(-c2nc(-c3cccnc3)sc2CC(=O)O)cc1`, the AC50 in data set [5] was 3.45 µM (active).
As to `Oc1[nH]c2ccc(Br)cc2c1N=Nc1ccc(C(F)(F)F)cn1`, the EC50 in [1] was 2.33 µM (active); in [2], > 60 µM (not active).
Consider `COc1cc(OC)cc(-c2cc(N3C(=O)Nc4ccccc4N3O)[nH]n2)c1`, for which the half-maximal effective concentration (EC50) in data set [3] was 73.7 µM (active).
`O=C(Nc1ccc(-c2nc3ccccc3s2)cc1)C1=COCCO1`: the EC50 in data set [6] is 5.8 µM (active); in [8] it was 2.95 µM (active).
For `COC(=O)C1=CN(Cc2ccc(OC)c(OC)c2)C=C(C(=O)OC)C1c1cccc(OC)c1OC`, the EC50 is 0.384 µM (active) in [1] and > 60 µM (not active) in data set [2].
With `COc1c(Cl)cc(Cl)cc1CNCCNCC(C)O` (centres undefined), at Cytochrome P450 2C19 (read-out: AC50), the AC50 is 14.1 µM (inconclusive).
As to `O=C(c1cc([N+](=O)[O-])ccc1N1CCCCC1)N1CCc2ccccc21`, the results for the EC50 in [6], in data set [7] and in data set [8] were > 120 µM (not active), > 120 µM (not active) and 10.9 µM (active), respectively.
For `O=C(CC(Sc1ccc(Br)cc1)C(=O)O)c1ccc(F)cc1` (centres undefined), the results for the EC50 in data set [1] and in data set [2] were 2.1 µM (active) and > 30 µM (not active), respectively.
Take `O=C(CN1CCN(S(=O)(=O)c2ccc3ccccc3c2)CC1)NC(=O)NC1CCCCC1`: the EC50 in data set [6] is > 120 µM (not active); in [7], 13 µM (active); in data set [8], 46.8 µM (active).
Consider `Cc1cccc2cc(CN(Cc3cccs3)Cc3nnnn3Cc3ccccc3)c(O)nc12`, for which the results for the EC50 in [1] and in data set [2] were 2.68 µM (active) and > 30 µM (not active), respectively.
Turning to `C1=C(c2ccccc2)CCN(c2[nH]cnc3ncnc2-3)C1`, the EC50 in [3] was > 195 µM (not active).
`Cc1ccc2nc(Cl)c(-c3ccccc3)cc2c1`: the EC50 in data set [6], in data set [7] and in data set [8] was > 120 µM (not active) in each case.
In the case of `CCc1ccc(-[n+]2cc(-c3ccc(F)cc3)n3c2SCCC3)cc1`, in the data set on INS1, the AC50 was 0.429 µM (active).
Regarding `Cn1c(=O)[nH]c(=O)c2c1nc(CN1CCOCC1)n2CCCO`, the AC50 result on Cytochrome P450 2C19 was “inconclusive”.
For the compound `Cc1cc(C(=O)N2CCCC(Nc3ccc(C(C)C)cc3)C2)nn1C` (centres undefined), in [5], the AC50 is 6.69 µM (active).
Turning to `Cc1c(Br)cnn1C(C)C(=O)N1CCN(c2ccc(F)cc2)CC1` (centres undefined), in [5], the AC50 is 0.578 µM (active).
Consider `c1ccc(CNc2ncnc3sc4c(c23)CCCC4)nc1`, for which the AC50 in [5] is 37.2 µM (active).
The same measure, in the same setting: the same measure for `Cc1cccc(N2CCN(C(=O)NC3CCCCC3)CC2C)c1` (centres undefined): 6.6 µM (active); for `C/C(=N\Nc1ccc(Cl)c(C(=O)O)c1)c1cc2ccccc2o1`: 0.138 µM (active).
As to `C/C(=N\Nc1nc(C)cc(-c2ccccc2)n1)c1ccc(O)cc1`, the concentration at half-maximal activity (AC50) with INS1 is 0.993 µM (active).
Regarding `O=C(N/N=C/c1ccccc1F)NC12CC3CC(CC(C3)C1)C2`, the figures for the EC50 in data set [1] and in data set [2] were 2.78 µM (active) and > 30 µM (not active), respectively.
Take `CC(=O)O[C@H]1CC[C@]2(C)[C@H]3CC=C4[C@@H]5[C@@H](C)[C@H](C)CC[C@]5(C(=O)O)CC[C@@]4(C)[C@]3(C)CC[C@H]2C1(C)C` [O-ACETYLURSOLIC ACID]: the figures for the EC50 (with Streptococcus; in data set [4]) were 3.26 µM (active) and 2.11 µM (active), respectively.

Values taken from ChEMBL document CHEMBL1201862, “PubChem BioAssay data set” (2004).
